{
  "source": "patent US20240009104A1",
  "about": "“PROCESS FOR EXTRACTION AND HEMI-SYNTHESIS OF PYRANOANTHOCYANINS AND SKINCARE COSMETIC FORMULATIONS CONTAINING THEM” (UNIVERSIDADE DO PORTO, priority 2021, published 2024)",
  "key": {"[1]": {"experiment": "Determination of solar protection factor (SPF), spectrophotometric, Mansur equation", "format": "physicochemical", "details": "for SPF: 1.0 mg in 5 mL ethanol, absorbance 290-320 nm, Mansur equation", "method": "Sample preparation 1.0 mg of all samples was weighed, transferred to a 5 mL volumetric flask, diluted to volume with ethanol, followed by ultra-sonication for 5 min. The absorption spectra of samples in solution were obtained in the range of 290 to 450 nm using 1 cm quartz cell, and ethanol as a blank. The absorption data were obtained in the range of 290 to 320, every 5 nm, and 3 determinations were made at each point, followed by the application of Mansur equation.\nWhere CF (correction factor) is 10, EE (A) is erythmogenic effect of radiation with wavelength λ, Abs is Spectrophotometric absorbance values at wavelength λ. The obtained absorbance values are multiplied with EE (λ)×1 (λ) and then their summation is taken and multiplied with correction factor to obtain the SPF values."}, "[2]": {"experiment": "Cytotoxicity to human fibroblasts and keratinocytes, MTT assay", "format": "cell-based", "details": "HaCat, HFF-1 and Heka cells, 0.78-100 μM", "method": "For this purpose, immortalized human foreskin fibroblasts HFF-1 were grown as monolayers from passage number 9-18 and maintained at 37° C. in an atmosphere of 5% CO2. For routine maintenance, the cells were cultured in 22.1 cm^2 plates as monolayers and maintained in Dulbecco's Modified Eagle Medium (DMEM, from Cell Lines Service), supplemented with 10% fetal bovine serum (FBS, from CLS) and 1% of antibiotic/antimycotic solution (100 units/mL of penicillin, 10 mg/mL of streptomycin and 0.25 mg/mL of amphotericin B from Sigma-Aldrich, St. Louis, MO, United States). The medium was replaced every two days and the cells were harvested every two weeks.\nThe cytotoxicity of the anthocyanins derivatives to HFF-1, Heka, and HaCat cells was evaluated using the standard MTT assay. Briefly, cells were seeded at a density of 5×10^4 cells or 1.5×10^4 cells/well onto 96-well plates and incubated at 37° C. in a 5% CO2 atmosphere. Cells were allowed to grow for 24 h, and serially diluted solutions of the different compounds (0.78-100 μM) were added to the wells. Then, cells were incubated for 48 h at 37° C., after which wells were washed once with phosphate buffered saline solution (PBS, Sigma-Aldrich, St. Louis, MO, United States), followed by addition of 0.45 mg/mL of MTT solution to each well. Crystals were allowed to form for 2 h. […] Absorbance was read at 570 nm."}, "P. aeruginosa ATCC 27853": {"tested_on": "P. aeruginosa ATCC 27853", "experiment": "MIC/MBC broth microdilution, P. aeruginosa", "format": "cell-based", "details": "Pseudomonas aeruginosa, ATCC27853; P. aeruginosa ATCC 27853, 24 h, 0.5 to 512 μg/mL", "method": "(§1) Compounds/extracts were tested against the following bacterial strains: Pseudomonas aeruginosa ATCC 27853, Staphylococcus aureus ATCC 29213, Staphylococcus epidermidis ATCC 14990, Streptococcus pyogenes ATCC 19615, Micrococcus luteus ATCC 4698. Prior to each in vitro bioassay, fresh cultures were obtained for each strain using the appropriate medium and incubation conditions as follows. Staphylococcus spp. and P. aeruginosa were grown on Mueller-Hinton (MH) agar (Liofilchemsrl, Italy) for 24 h at 37° C., while M. luteus was grown in Tryptic Soy agar (TSA, Liofilchem srl, Italy) for 24 h at 30° C. and S. pyogenes on TSA with 5% defibrinated sheep blood (Thermo Fisher Scientific, USA) for 24 h at 37° C. in an atmosphere of 5% CO2.\n(§2) Minimum inhibitory concentrations (MICs) of compounds/extracts were determined using a broth microdilution technique, following the recommendations of the Clinical and Laboratory Standards Institute. Briefly, fresh colonies of each strain were used to prepare the respective inocula with an optical density at 600 nm (OD600) equal to 0.1 (approximately 1^10^8 CFU/mL). For all strains, cation-adjusted Mueller-Hinton broth (MHB2, Sigma-Aldrich, USA) was used, but in the case of S. pyogenes, MBH2 was previously supplemented with 2.5% lysed horse blood (Thermo Fisher Scientific, USA). In 96-well, U-bottom, microplates, each compound was serially diluted in the respective medium from stock solutions (10 mg/mL in DMSO) to achieve in-test concentrations ranging from 0.5 to 512 μg/mL. Wells were inoculated so that the final concentration in eachwas of 5×10^5 CFU/mL. The microplates were incubated at 37° C. for 24 h. The MIC was defined as the lowest concentration of compound inhibiting the bacterial growth visible to the naked eye."}, "S. aureus ATCC 29213": {"tested_on": "S. aureus ATCC 29213", "experiment": "MIC/MBC broth microdilution, S. aureus", "format": "cell-based", "details": "Staphylococcus aureus, ATCC29213; S. aureus ATCC 29213, 24 h, 0.5 to 512 μg/mL", "method": "as §1, §2"}, "M. luteus ATCC 4698": {"tested_on": "M. luteus ATCC 4698", "experiment": "MIC/MBC broth microdilution, M. luteus", "format": "cell-based", "details": "Micrococcus luteus, ATCC4698; M. luteus ATCC 4698, 24 h, 0.5 to 512 μg/mL", "method": "as §1, §2"}, "[3]": {"tested_on": "S. epidermidis ATCC 14990", "experiment": "MIC/MBC broth microdilution, S. epidermidis", "format": "cell-based", "details": "Staphylococcus epidermidis, ATCC14990; S. epidermidis ATCC 14990, 24 h, 0.5 to 512 μg/mL", "method": "as §1, §2"}, "S. pyogenes ATCC 19615": {"tested_on": "S. pyogenes ATCC 19615", "experiment": "MIC/MBC broth microdilution, S. pyogenes", "format": "cell-based", "details": "Streptococcus pyogenes, ATCC19615; S. pyogenes ATCC 19615, 24 h, 0.5 to 512 μg/mL", "method": "as §1, §2"}},
  "data": [
    {"compound": "COc1cc(-c2[o+]c3cc(O)cc4c3c(c2OC2OC(CO)C(O)C(O)C2O)C=C(/C=C/c2c(O)cc(O)c3c2OC(c2ccc(O)c(O)c2)C(O)C3)O4)cc(OC)c1O", "note": "(centres unmarked) [VI-B, Vinylpyranomalvidin-3-O-glucoside-cathechin]", "values": [
      {"measurement": "SPF", "setting": "[1]", "value": "8.35 ± 0.06"}
    ]},
    {"compound": "4-(Dimethylamino)-cinnamyl-10-vinylene-pyranomalvidin-3-glucoside [VII-B]", "values": [
      {"measurement": "SPF", "setting": "[1]", "value": "15.02 ± 0.07"}
    ]},
    {"compound": "COc1cc(-c2[o+]c3cc(O)cc4c3c(c2OC2OC(CO)C(O)C(O)C2O)C=C(C(=O)O)O4)cc(OC)c1O", "note": "(centres unmarked) [II-B, Carboxypyranomalvidin-3-glucoside]", "values": [
      {"measurement": "UV protection (0.2 mg/mL)", "setting": "[1]; 0.2 mg/mL", "value": "13.92 ± 0.04"},
      {"measurement": "SPF", "setting": "[1]", "value": "13.92 ± 0.04"},
      {"measurement": "IC50 at 48 h", "setting": "[2]", "value": "> 100", "unit": "µM"},
      {"measurement": "MIC", "setting": "P. aeruginosa ATCC 27853", "value": "> 512", "unit": "µg/mL"},
      {"measurement": "MIC", "setting": "S. aureus ATCC 29213", "value": "> 512", "unit": "µg/mL"},
      {"measurement": "MIC", "setting": "M. luteus ATCC 4698", "value": "> 512", "unit": "µg/mL"},
      {"measurement": "MIC", "setting": "[3]", "value": "> 512", "unit": "µg/mL"},
      {"measurement": "MIC", "setting": "S. pyogenes ATCC 19615", "value": "> 512", "unit": "µg/mL"}
    ]},
    {"compound": "Cyanidin-3-O-glucoside-4-vinylcatechol [V-A]", "values": [
      {"measurement": "SPF", "setting": "[1]", "value": "24.00 ± 0.01"}
    ]},
    {"compound": "CN(C)c1ccc(/C=C/C=C/C2=Cc3c(OC4OC(CO)C(O)C(O)C4O)c(-c4ccc(O)c(O)c4)[o+]c4cc(O)cc(c34)O2)cc1", "note": "(centres unmarked) [VIII-A, 4-(Dimethylamino)-cinnamyl-10-butadienylidene-pyranocyanidin-3-O-glucoside]", "values": [
      {"measurement": "SPF", "setting": "[1]", "value": "14.78 ± 0.02"}
    ]},
    {"compound": "Malvidin-3-O-glucoside-4-vinylcatechol [V-B]", "values": [
      {"measurement": "SPF", "setting": "[1]", "value": "10.02 ± 0.00"}
    ]},
    {"compound": "CC1=Cc2c(OC3OC(CO)C(O)C(O)C3O)c(-c3ccc(O)c(O)c3)[o+]c3cc(O)cc(c23)O1", "note": "(centres unmarked) [III-A, Methylpyranocyanidin-3-glucoside]", "values": [
      {"measurement": "SPF", "setting": "[1]", "value": "18.53 ± 0.15"},
      {"measurement": "MIC", "setting": "P. aeruginosa ATCC 27853", "value": "> 512", "unit": "µg/mL"},
      {"measurement": "MIC", "setting": "S. aureus ATCC 29213", "value": "> 512", "unit": "µg/mL"},
      {"measurement": "MIC", "setting": "M. luteus ATCC 4698", "value": "> 512", "unit": "µg/mL"},
      {"measurement": "MIC", "setting": "[3]", "value": "> 512", "unit": "µg/mL"},
      {"measurement": "MIC", "setting": "S. pyogenes ATCC 19615", "value": "> 512", "unit": "µg/mL"}
    ]},
    {"compound": "O=C(O)C1=Cc2c(OC3OC(CO)C(O)C(O)C3O)c(-c3ccc(O)c(O)c3)[o+]c3cc(O)cc(c23)O1", "note": "(centres unmarked) [II-A, Carboxypyranocyanidin-3-glucoside]", "values": [
      {"measurement": "SPF", "setting": "[1]", "value": "20.71 ± 0.18"},
      {"measurement": "MIC", "setting": "P. aeruginosa ATCC 27853", "value": "> 512", "unit": "µg/mL"},
      {"measurement": "MIC", "setting": "S. aureus ATCC 29213", "value": "> 512", "unit": "µg/mL"},
      {"measurement": "MIC", "setting": "M. luteus ATCC 4698", "value": "> 512", "unit": "µg/mL"},
      {"measurement": "MIC", "setting": "[3]", "value": "> 512", "unit": "µg/mL"},
      {"measurement": "MIC", "setting": "S. pyogenes ATCC 19615", "value": "> 512", "unit": "µg/mL"}
    ]},
    {"compound": "CN(C)c1ccc(C2=Cc3c(OC4OC(CO)C(O)C(O)C4O)c(-c4ccc(O)c(O)c4)[o+]c4cc(O)cc(c34)O2)cc1", "note": "(centres unmarked) [V-C, Pyranocyanidin-3-glucoside-(4-dimethylamino)-cinnamyl]", "values": [
      {"measurement": "SPF", "setting": "[1]", "value": "13 ± 0.04"}
    ]}
  ]
}
